According to ChEMBL document CHEMBL1145323, “Synthesis and biological activity of amide derivatives of nimbolide” (Bioorg Med Chem Lett, 2006):

system: HT-29; experiment: Antiproliferative activity against human HT29 cell line; format: functional, cell-based; conditions: Homo sapiens, HT-29; read-out: IC50

Row | IC50 [µM] | Structure (SMILES)
1 | 17.5 | COC(=O)C[C@H]1[C@]2(C)C3=C(C)[C@H](c4ccoc4)C[C@H]3O[C@@H]2[C@H](O)[C@@H]2[C@]1(C)C(=O)C=C[C@@]2(C)C(=O)NCc1ccc(C(F)(F)F)cc1
2 | 78.1 | COC(=O)C[C@H]1[C@]2(C)C3=C(C)[C@H](c4ccoc4)C[C@H]3O[C@@H]2[C@H](O)[C@@H]2[C@]1(C)C(=O)C=C[C@@]2(C)C(=O)NCc1ccc(F)cc1
3 | 63.1 | COC(=O)C[C@H]1[C@]2(C)C3=C(C)[C@H](c4ccoc4)C[C@H]3O[C@@H]2[C@H](O)[C@@H]2[C@]1(C)C(=O)C=C[C@@]2(C)C(=O)NCc1cccc(OC)c1
4 | 0.05 | COC(=O)C[C@H]1[C@]2(C)C3=C(C)[C@H](c4ccoc4)C[C@H]3O[C@@H]2[C@H](O)[C@@H]2[C@]1(C)C(=O)C=C[C@@]2(C)C(=O)NCC(C)C
5 | 6.94 | COC(=O)C[C@H]1[C@]2(C)C3=C(C)[C@H](c4ccoc4)C[C@H]3O[C@@H]2[C@@H]2OC(=O)[C@]3(C)C=CC(=O)[C@@]1(C)[C@@H]23 [NIMBOLIDE]

same assay, conditions: ht-29

Row | IC50 | Structure (SMILES)
6 | Not Active | COC(=O)C[C@H]1[C@]2(C)C3=C(C)[C@H](c4ccoc4)C[C@H]3O[C@@H]2[C@H](O)[C@@H]2[C@]1(C)C(=O)C=C[C@@]2(C)C(=O)NCc1ccc(OC)cc1

system: SW-60; experiment: Antiproliferative activity against […]; format: functional, cell-based; conditions: Homo sapiens, SW-60; read-out: IC50

Row | IC50 [µM] | Structure (SMILES)
7 | 26.4 | COC(=O)C[C@H]1[C@]2(C)C3=C(C)[C@H](c4ccoc4)C[C@H]3O[C@@H]2[C@H](O)[C@@H]2[C@]1(C)C(=O)C=C[C@@]2(C)C(=O)NCc1ccc(C(F)(F)F)cc1
8 | 0.08 | COC(=O)C[C@H]1[C@]2(C)C3=C(C)[C@H](c4ccoc4)C[C@H]3O[C@@H]2[C@H](O)[C@@H]2[C@]1(C)C(=O)C=C[C@@]2(C)C(=O)NCC(C)C
9 | 8.25 | COC(=O)C[C@H]1[C@]2(C)C3=C(C)[C@H](c4ccoc4)C[C@H]3O[C@@H]2[C@@H]2OC(=O)[C@]3(C)C=CC(=O)[C@@]1(C)[C@@H]23 [NIMBOLIDE]

same assay, conditions: sw-60

Row | IC50 | Structure (SMILES)
10 | Not Active | COC(=O)C[C@H]1[C@]2(C)C3=C(C)[C@H](c4ccoc4)C[C@H]3O[C@@H]2[C@H](O)[C@@H]2[C@]1(C)C(=O)C=C[C@@]2(C)C(=O)NCc1ccc(F)cc1
11 | Not Active | COC(=O)C[C@H]1[C@]2(C)C3=C(C)[C@H](c4ccoc4)C[C@H]3O[C@@H]2[C@H](O)[C@@H]2[C@]1(C)C(=O)C=C[C@@]2(C)C(=O)NCc1ccc(OC)cc1
12 | Not Active | COC(=O)C[C@H]1[C@]2(C)C3=C(C)[C@H](c4ccoc4)C[C@H]3O[C@@H]2[C@H](O)[C@@H]2[C@]1(C)C(=O)C=C[C@@]2(C)C(=O)NCc1cccc(OC)c1

system: HOP-62; experiment: Antiproliferative activity against human HOP62 cell line; format: functional, cell-based; conditions: Homo sapiens, HOP-62; read-out: IC50

Row | Structure (SMILES) | IC50 [µM]
13 | COC(=O)C[C@H]1[C@]2(C)C3=C(C)[C@H](c4ccoc4)C[C@H]3O[C@@H]2[C@H](O)[C@@H]2[C@]1(C)C(=O)C=C[C@@]2(C)C(=O)NCc1ccc(C(F)(F)F)cc1 | 14.1
14 | COC(=O)C[C@H]1[C@]2(C)C3=C(C)[C@H](c4ccoc4)C[C@H]3O[C@@H]2[C@H](O)[C@@H]2[C@]1(C)C(=O)C=C[C@@]2(C)C(=O)NCc1ccc(OC)cc1 | 102
15 | COC(=O)C[C@H]1[C@]2(C)C3=C(C)[C@H](c4ccoc4)C[C@H]3O[C@@H]2[C@H](O)[C@@H]2[C@]1(C)C(=O)C=C[C@@]2(C)C(=O)NCc1cccc(OC)c1 | 79.2
16 | COC(=O)C[C@H]1[C@]2(C)C3=C(C)[C@H](c4ccoc4)C[C@H]3O[C@@H]2[C@H](O)[C@@H]2[C@]1(C)C(=O)C=C[C@@]2(C)C(=O)NCC(C)C | 4.83
17 | COC(=O)C[C@H]1[C@]2(C)C3=C(C)[C@H](c4ccoc4)C[C@H]3O[C@@H]2[C@@H]2OC(=O)[C@]3(C)C=CC(=O)[C@@]1(C)[C@@H]23 [NIMBOLIDE] | 10.4

same assay, conditions: hop-62

Row | Structure (SMILES) | IC50
18 | COC(=O)C[C@H]1[C@]2(C)C3=C(C)[C@H](c4ccoc4)C[C@H]3O[C@@H]2[C@H](O)[C@@H]2[C@]1(C)C(=O)C=C[C@@]2(C)C(=O)NCc1ccc(F)cc1 | Not Active

system: A549; experiment: Antiproliferative activity against human A549 cell line; format: functional, cell-based; conditions: Homo sapiens, A549; read-out: IC50

Row | IC50 [µM] | Structure (SMILES)
19 | 37.3 | COC(=O)C[C@H]1[C@]2(C)C3=C(C)[C@H](c4ccoc4)C[C@H]3O[C@@H]2[C@H](O)[C@@H]2[C@]1(C)C(=O)C=C[C@@]2(C)C(=O)NCc1ccc(C(F)(F)F)cc1
20 | 15.6 | COC(=O)C[C@H]1[C@]2(C)C3=C(C)[C@H](c4ccoc4)C[C@H]3O[C@@H]2[C@@H]2OC(=O)[C@]3(C)C=CC(=O)[C@@]1(C)[C@@H]23 [NIMBOLIDE]

same assay, conditions: a549

Row | Structure (SMILES) | IC50
21 | COC(=O)C[C@H]1[C@]2(C)C3=C(C)[C@H](c4ccoc4)C[C@H]3O[C@@H]2[C@H](O)[C@@H]2[C@]1(C)C(=O)C=C[C@@]2(C)C(=O)NCc1ccc(F)cc1 | Not Active
22 | COC(=O)C[C@H]1[C@]2(C)C3=C(C)[C@H](c4ccoc4)C[C@H]3O[C@@H]2[C@H](O)[C@@H]2[C@]1(C)C(=O)C=C[C@@]2(C)C(=O)NCC(C)C | Not Active

More lines, now with the values ahead:

Row | IC50 | Structure (SMILES)
23 | Not Active | COC(=O)C[C@H]1[C@]2(C)C3=C(C)[C@H](c4ccoc4)C[C@H]3O[C@@H]2[C@H](O)[C@@H]2[C@]1(C)C(=O)C=C[C@@]2(C)C(=O)NCc1ccc(OC)cc1
24 | Not Active | COC(=O)C[C@H]1[C@]2(C)C3=C(C)[C@H](c4ccoc4)C[C@H]3O[C@@H]2[C@H](O)[C@@H]2[C@]1(C)C(=O)C=C[C@@]2(C)C(=O)NCc1cccc(OC)c1

system: PC-3; experiment: Antiproliferative activity against human PC3 cell line; format: functional, cell-based; conditions: Homo sapiens, PC-3; read-out: IC50

Row | IC50 [µM] | Structure (SMILES)
25 | 32.3 | COC(=O)C[C@H]1[C@]2(C)C3=C(C)[C@H](c4ccoc4)C[C@H]3O[C@@H]2[C@H](O)[C@@H]2[C@]1(C)C(=O)C=C[C@@]2(C)C(=O)NCc1ccc(C(F)(F)F)cc1
26 | 21.5 | COC(=O)C[C@H]1[C@]2(C)C3=C(C)[C@H](c4ccoc4)C[C@H]3O[C@@H]2[C@H](O)[C@@H]2[C@]1(C)C(=O)C=C[C@@]2(C)C(=O)NCc1ccc(OC)cc1
27 | 7.43 | COC(=O)C[C@H]1[C@]2(C)C3=C(C)[C@H](c4ccoc4)C[C@H]3O[C@@H]2[C@H](O)[C@@H]2[C@]1(C)C(=O)C=C[C@@]2(C)C(=O)NCC(C)C
28 | 4.59 | COC(=O)C[C@H]1[C@]2(C)C3=C(C)[C@H](c4ccoc4)C[C@H]3O[C@@H]2[C@@H]2OC(=O)[C@]3(C)C=CC(=O)[C@@]1(C)[C@@H]23 [NIMBOLIDE]

same assay, conditions: pc-3

Row | IC50 | Structure (SMILES)
29 | Not Active | COC(=O)C[C@H]1[C@]2(C)C3=C(C)[C@H](c4ccoc4)C[C@H]3O[C@@H]2[C@H](O)[C@@H]2[C@]1(C)C(=O)C=C[C@@]2(C)C(=O)NCc1ccc(F)cc1
30 | Not Active | COC(=O)C[C@H]1[C@]2(C)C3=C(C)[C@H](c4ccoc4)C[C@H]3O[C@@H]2[C@H](O)[C@@H]2[C@]1(C)C(=O)C=C[C@@]2(C)C(=O)NCc1cccc(OC)c1

system: OVCAR-5; experiment: Antiproliferative activity against human OVCAR5 cell line; format: functional, cell-based; conditions: Homo sapiens, OVCAR-5; read-out: IC50

Row | IC50 [µM] | Structure (SMILES)
31 | 84.1 | COC(=O)C[C@H]1[C@]2(C)C3=C(C)[C@H](c4ccoc4)C[C@H]3O[C@@H]2[C@H](O)[C@@H]2[C@]1(C)C(=O)C=C[C@@]2(C)C(=O)NCc1ccc(F)cc1
32 | 93.1 | COC(=O)C[C@H]1[C@]2(C)C3=C(C)[C@H](c4ccoc4)C[C@H]3O[C@@H]2[C@H](O)[C@@H]2[C@]1(C)C(=O)C=C[C@@]2(C)C(=O)NCc1ccc(OC)cc1
33 | 1.53 | COC(=O)C[C@H]1[C@]2(C)C3=C(C)[C@H](c4ccoc4)C[C@H]3O[C@@H]2[C@H](O)[C@@H]2[C@]1(C)C(=O)C=C[C@@]2(C)C(=O)NCC(C)C
34 | 4.17 | COC(=O)C[C@H]1[C@]2(C)C3=C(C)[C@H](c4ccoc4)C[C@H]3O[C@@H]2[C@@H]2OC(=O)[C@]3(C)C=CC(=O)[C@@]1(C)[C@@H]23 [NIMBOLIDE]

same assay, conditions: ovcar-5

Row | IC50 | Structure (SMILES)
35 | Not Active | COC(=O)C[C@H]1[C@]2(C)C3=C(C)[C@H](c4ccoc4)C[C@H]3O[C@@H]2[C@H](O)[C@@H]2[C@]1(C)C(=O)C=C[C@@]2(C)C(=O)NCc1ccc(C(F)(F)F)cc1
36 | Not Active | COC(=O)C[C@H]1[C@]2(C)C3=C(C)[C@H](c4ccoc4)C[C@H]3O[C@@H]2[C@H](O)[C@@H]2[C@]1(C)C(=O)C=C[C@@]2(C)C(=O)NCc1cccc(OC)c1
